According to patent US7160859B2, “Mst1 modulation of apoptosis in cardiac tissue and modulators of Mst1 for treatment and prevention of cardiac disease” (University of Medicine & Dentistry of New Jersey, priority 2002, dated 2007):

Experiments:
[1] = system: cardiac myocytes; experiment: Cell Death Detection ELISA: cytoplasmic accumulation of mono- and oligo-nucleosomes (DNA fragmentation); assay type: cell-based, rat
Protocol: Primary cultures of ventricular cardiac myocytes were prepared from 1-day-old Crl: (WI) BR-Wistar rats (Charles River Laboratories, Wilmington, Mass.) as described previously (34). A cardiac myocyte rich fraction was obtained by centrifugation through the discontinuous Percoll gradient as described (34). Cells were cultured in the cardiac myocyte culture medium containing Dulbecco's modified Eagle medium (DMEM)/F12 supplemented with 5% horse serum, 4 μg/mL transferrin, 0.7 ng/mL sodium selenite (GIBCO), 2 g/L bovine serum albumin (fraction V), 3 mmol/L pyruvic acid, 15 mmol/L HEPES, 100 μmol/L ascorbic acid, 100 μg/mL ampicillin, 5 μg/mL linoleic acid and 100 μmol/L 5-bromo-2′-deoxyuridine (Sigma). We obtained myocyte cultures in which more than 95% were myocytes, as assessed by immunofluorescence staining with a monoclonal antibody against sarcomeric myosin (MF20). Culture media were changed to serum-free at 24–36 h and then subjected to adenovirus transduction. Myocytes were cultured in the serum-free condition for 48 h before experiments.
Histone-associated DNA fragments were quantified by the Cell Death Detection ELISA (Roche, Indianapolis, Ind.) according to the manufacturer's instruction as described (35) with minor modification for sample preparation. In brief, myocytes were rinsed with PBS three times in order to remove nucleosomes leaked out from necrotic cells and then incubated with the lysis buffer for 30 min. The supernatant containing mono- and oligonucleosomes from the cytoplasmic fraction of apoptotic cells was used for further analyses. DNA fragmentation of the tissue samples was determined by DNA laddering assays. Genomic DNA containing small molecular weight fragments was isolated and analyzed by agarose gel electrophoresis as described (36).

[2] = system: Mst1; experiment: In gel myelin basic protein (MBP) kinase assay of cardiac myocyte lysates; assay type: cell-based, rat; conditions: in the presence of DEVD-CHO, 100 μM
Protocol: FIGS. 1A, 1B, 1C, 1D and 1E depict Mst1 activity assessed on treatment of cardiac myocytes with chelerythrine (Chele) or calyculin A. (A) Cardiac myocytes were treated with indicated concentrations of chelerythrine for 1 h. Cell lysates were subjected to in-gel myelin basic protein (MBP) kinase assay as well as immunoblotting with anti-cleaved caspase-3 antibody. Results are representative of more than five experiments. (B) Cardiac myocytes were treated with chelerythrine (Chele). In the right panel, myocytes were transduced with either control virus or adenovirus harboring XIAP 48 hours before Chele application. Cell lysates were subjected with immune complex in-gel MBP kinase assays, using anti-Mst1 polyclonal antibody (pAb-15). The activity of cleaved Mst1 is shown. (C) Cardiac myocytes were treated with Chele for the indicated durations. […]
Primary cultures of ventricular cardiac myocytes were prepared from 1-day-old Crl: (WI) BR-Wistar rats (Charles River Laboratories, Wilmington, Mass.) as described previously (34). […] We obtained myocyte cultures in which more than 95% were myocytes, as assessed by immunofluorescence staining with a monoclonal antibody against sarcomeric myosin (MF20). […]

[3] = system: cardiac myocytes; experiment: Morphology of cardiac myocytes (cell shrinkage, cell death); assay type: cell-based, rat; conditions: within 6 h
[4] = system: caspase-3; experiment: Immunoblot with anti-cleaved caspase-3 antibody; assay type: cell-based, rat; conditions: Doxo, 6 and 24 hour time points
From the text: For analyses of Mst1, cells were lysed in a Lysis Buffer A, containing 25 mmol/L NaCl, 25 mmol/L Tris (pH 7.4), 1 mmol/L Na3VO4, 10 mmol/L NaF, 10 mmol sodium pyrophosphate, 0.5 mmol/L EGTA, 0.5 mmol/L AEBSF, 0.5 μ/mL leupeptin, 0.5 μ/mL aprotinin. Samples containing the equal amount of protein were subjected to SDS-PAGE. Proteins were transferred onto polyvinylidene fluoride microporous membranes (Bio Rad, Hercules, Calif.) and probed with primary antibodies. We used anti-Mst1 monoclonal antibody (Transduction Laboratory, Lexington, Ky.) for detection of the carboxyl terminus of Mst1. Affinity purified rabbit polyclonal antibody was raised against animo-terminal ETVQLRNPPRRQLKC (pAb-15) (SEQ ID NO:4) (BioSource International, Camarillo, Calif.) for detection of the amino-terminus of Mst1. Blots were then probed by horseradish peroxidase-conjugated anti-mouse IgG or anti-rabbit IgG (Cell Signaling Technolog Inc., Beverly, Mass.). Antigen-antibody complexes were visualized by the enhanced chemiluminescence system (ECL, Amersham/Pharmacia, Piscataway, N.J.). Polyclonal antibodies raised against cleaved caspase-3 (Cell Signaling Technology Inc.) were used to determine activation of caspase-3, as described (35).

[5] = system: caspase-9; experiment: Western blot of caspase-9 cleavage; assay type: cell-based, rat; conditions: Doxo, 6 and 24 hour time points
[6] = system: Neonatal rat cardiac myocytes; experiment: Phenylephrine-induced hypertrophy of cultured cardiac myocytes; assay type: cell-based; conditions: PE 10 μM 48 h, LacZ virus-transduced myocytes
From the text: We have previously and above shown that mammalian sterile-20 like kinase 1 (Mst1) plays an important role in mediating cardiac myocyte apoptosis in response to ischemia/reperfusion and doxorubicin treatment. Cardiac specific overexpression of Mst1 in transgenic mice (Tg-Mst1) increases cardiac myocyte apoptosis in the heart and the mice develop dilated cardiomyopathy (DCM) and congestive heart failure within 3 months of age. […] Lack of compensatory cardiac myocyte hypertrophy may adversely affect LV function of Tg-Mst1 because operation of the Frank Starling mechanism could be less efficient at the individual cell level. This study was undertaken in order to elucidate if transient expression of Mst1 has a direct anti-hypertrophic effects in cultured cardiac myocytes in vitro. Neonatal rat cardiac myocytes were transduced with adenoviral vectors (10 MOI) in serum-free conditions for 48 h and then treated with phenylephrine (PE, 10 μM) for 48 h. Phenylephrine stimulates hypertrophy of cardiac myocytes in normal animals. Treatment of LacZ virus-transduced myocytes with PE caused a 2.4 fold increase in the cell size and a 1.7 fold increase in protein/DNA content. […] In summary, Mst1 has a direct anti-hypertrophic effect upon PE-treated cultured cardiac myocytes, possibly affecting other signaling mechanisms, including ERKs.

Compound: DEVD-CHO
- increases in DNA fragmentation by wild type Mst1 ([1]; in the presence of DEVD-CHO, 100 μM): inhibited
- increased activities and cleavage of Mst1 by overexpression of Mst1 [2]: attenuated

Compound: COc1cccc2c1C(=O)c1c(O)c3c(c(O)c1C2=O)C[C@@](O)(C(=O)CO)C[C@@H]3O[C@H]1C[C@H](N)[C@H](O)[C@H](C)O1 [Dox, Doxorubicin]
- concentrations that dose-dependently induced cell shrinkage [3]: 0.1 to 3 µM
- OD405 value (DNA fragmentation ELISA) ([1]; 6 h treatment with 0.5 μM Dox, control virus): 0.69
- activation (cleavage) of caspase-3 [4]: time dependent manner
- activation (cleavage) of caspase-9 [5]: time dependent manner

Compound: COC[C@@H]([C@H](O)[C@H](O)C(=O)NCC[C@H](C)c1nc(/C=C/C[C@@H]2O[C@]3(C[C@@H](O)[C@@H]2C)O[C@H]([C@H](C[C@H](O)[C@H](C)[C@H](O)[C@H](C)/C=C(C)/C(C)=C/C=C/C(C)=C\C#N)OC)[C@H](OP(=O)(O)O)C3(C)C)co1)N(C)C [calyculin A]
- increase in cytoplasmic accumulation of oligo- and mono-nucleosomes ([1]; vs untreated, n=4, p<0.05): 4.3±1.4 fold
- DNA fragmentation by calyculin A ([1]; with control virus): 5.6 fold

Compound: CNC[C@H](O)c1cccc(O)c1 [PE, phenylephrine]
- increase in protein/DNA content [6]: 1.7 fold
- increase in the cell size [6]: 2.4 fold
